Measured values from patent publication US20170122958A1, “Enzymes Functional Probes” (University of Dundee, priority 2013, published 2017).

How the values were obtained:
Brd2(2) Leu383-Ile = Brd2(2) Leu383-Ile (Homo sapiens, UniProt P25440, L383I); assay: ITC reverse titration of protein into compound; type: binding; design: Plasmids of the eight single BET bromodomain constructs Brd2(1), Brd2(2), Brd3(1), Brd3(2), Brd4(1), Brd4(2), Brdt(1) and Brdt(2); His6 (N); made in house; host or cells: E. coli BL21(DE3)
Brd2(2) Leu383-Ile, sequence (P25440 344-453 L383I limits assumed): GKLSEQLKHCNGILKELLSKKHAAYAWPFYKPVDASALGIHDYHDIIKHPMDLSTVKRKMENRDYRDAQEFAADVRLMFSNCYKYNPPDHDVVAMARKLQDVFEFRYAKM
Method: ITC experiments were carried out on a ITC200 instrument from MicroCal™ Experiments were conducted at 3 different temperatures 15° C., 25° C. and 30° C., while stirring at 1000 rpm. Buffers of proteins, peptide and compounds were matched to 20 mM HEPES pH 7.5 at 25° C. and 100 mM NaCl. Frozen protein was buffer exchanged as described for the DSF experiments. Each titration comprised 1 initial injection of 0.4 μl lasting 0.8 s, followed by 19 injections of 2 μl lasting 4 s each at 2 min intervals. The initial injection was discarded during data analysis. Standard and reverse titrations were conducted depending on the binding partners.
Reverse titrations were conducted to test the binding of the known ligands and the novel chemical probes to the wild types and the mutants. Experiments were carried out either at 25° C. or 30° C. For strong binders, a concentration of 150-200 μM of the protein was injected into a solution of 15-20 μM compound. […] In cases where the compound was solubilized in dimethyl sulfoxide, DMSO concentration was adjusted to 1% both in the syringe and in the cell.
All the data was fitted to a single binding site model using the Microcal LLC ITC200 Origin software provided by the manufacturer to yield enthalpies of binding (ΔH) and binding constants (Kas). Further thermodynamic parameters were calculated from these values (changes in entropy ΔS, changes in free energy AG and dissociation constants (Kds)).

[1] = target: T1, double Leu(94,387)/Ala mutant of GFP-Brd4 (Homo sapiens, UniProt O60885, L387A/L94A); assay: FRAP in transfected U2OS cells; type: cell-based; settings: double Leu(94,387)/Ala mutant GFP-Brd4, 1 μM compound
T1 construct: U2OS cells transfected with full-length human GFP-brd4; expressed in transfected cells; host or cells: U2OS human osteosarcoma cells
Method: To establish whether selectivity could also be observed within cells, we developed fluorescence recovery after photobleaching (FRAP) assays using full length human GFP-BRD4 transfected into human osteosarcoma cells (U2OS). […] The data shown represent the mean±SEM (n=35-50). Statistical significance was determined by one-tailed t tests: *<0.05; **P<0.01; ***P<0.001; n.s. not significant.
Fluorescence recovery after photobleaching (FRAP) experiments were performed in human osteosarcoma U2OS cells transfected with mammalian expression constructs encoding wild type and mutant GFP chimeras of Brd4. Cells were cultured in DMEM (Gibco) supplemented with fetal bovine serum, Penicillin/Streptamycin and L-Glutamine. Cells were seeded into glass bottom dishes (Willco) to about 40% confluency and transfected with the constructs using Effectene (QIAGEN) at least 18 h before the experiment. […] FRAP studies were performed using a DeltaVision Core mounted on an Olympus IX70 stand with a 60×1.4NA plan apo objective lens equipped with a heated chamber set to 37° C. and a Quantifiable Laser Module (QLM) with 10 mW 488 nm solid state laser delivering a diffraction limited spot to the centre field of view. […] FRAP data was analysed using the SoftWorX software. It was fitted to a 2-dimensional recovery curve using the method of Axelrod as implemented within the software and half-times of recovery were calculated.

WT GFP-Brd4 = target: T2, WT GFP-Brd4 (Homo sapiens, UniProt O60885); assay: FRAP in transfected U2OS cells; type: cell-based; settings: WT GFP-Brd4, 1 μM compound
T2 construct: full length human GFP-BRD4 transfected into human osteosarcoma cells (U2OS); expressed in transfected cells; host or cells: U2OS human osteosarcoma cells
Method: Fluorescence recovery after photobleaching (FRAP) experiments were performed in human osteosarcoma U2OS cells transfected with mammalian expression constructs encoding wild type and mutant GFP chimeras of Brd4. Cells were cultured in DMEM (Gibco) supplemented with fetal bovine serum, Penicillin/Streptamycin and L-Glutamine. Cells were seeded into glass bottom dishes (Willco) to about 40% confluency and transfected with the constructs using Effectene (QIAGEN) at least 18 h before the experiment. Treatment of cells with 1 μM compounds (in DMSO) was performed 12-15 h before the experiment. Cells without compound treatment were treated with DMSO as a vehicle control at least 15 h before the experiment. DMEM was exchanged for CO2-independent phenol red-free media (Gibco) for the experiment. […] A spot was bleached with a single pulse at 100% laser power for 0.2 s and recovery images were acquired using a coolsnap HQ camera with a 2×2 bin at 0.05 s exposure. […] FRAP data was analysed using the SoftWorX software. It was fitted to a 2-dimensional recovery curve using the method of Axelrod as implemented within the software and half-times of recovery were calculated.

Brd4(2) = target: T3, Brd4(2) (Homo sapiens, UniProt O60885); assay: DSF thermal shift; type: binding; settings: wild type
T3 construct: Plasmids of the eight single BET bromodomain constructs Brd2(1), Brd2(2), Brd3(1), Brd3(2), Brd4(1), Brd4(2), Brdt(1) and Brdt(2); His6 (N); made in house; host or cells: E. coli BL21(DE3)

brd4(2)L387A = target: T4, brd4(2)L387A (Homo sapiens, UniProt O60885, L387A); assay: DSF thermal shift; type: binding; settings: mutant
T4 construct: Plasmids of the eight single BET bromodomain constructs Brd2(1), Brd2(2), Brd3(1), Brd3(2), Brd4(1), Brd4(2), Brdt(1) and Brdt(2); His6 (N); made in house; host or cells: E. coli BL21(DE3)

Brd4(1) = target: T5, Brd4(1) (Homo sapiens, UniProt O60885); assay: DSF thermal shift; type: binding; settings: wild type
T5 construct: Plasmids of the eight single BET bromodomain constructs Brd2(1), Brd2(2), Brd3(1), Brd3(2), Brd4(1), Brd4(2), Brdt(1) and Brdt(2); His6 (N); made in house; host or cells: E. coli BL21(DE3)

brd4(1)L094A = target: T6, brd4(1)L094A (Homo sapiens, UniProt O60885, L94A); assay: DSF thermal shift; type: binding; settings: mutant
T6 construct: Plasmids of the eight single BET bromodomain constructs Brd2(1), Brd2(2), Brd3(1), Brd3(2), Brd4(1), Brd4(2), Brdt(1) and Brdt(2); His6 (N); made in house; host or cells: E. coli BL21(DE3)

Compound | Kd (Brd2(2) Leu383-Ile) [nM] | Fluorescence recovery after photobleaching (recovery time) [1] | Fluorescence recovery after photobleaching (recovery time) (WT GFP-Brd4) | ΔTm Brd4(2) (Brd4(2)) [K] | ΔTm Brd4(2)* (L387A) (brd4(2)L387A) [K] | ΔTm Brd4(1) (Brd4(1)) [K] | ΔTm Brd4(1)* (L094A) (brd4(1)L094A) [K]
COC(=O)[C@H](C)[C@@H]1N=C(c2ccc(Cl)cc2)c2cc(OC)ccc2-n2c(C)nnc21 (racemic) [Compound 7, (+−)-methyl (R)-2-((S)-6-(4-chlorophenyl)-8-methoxy-1-methyl-4H-benzo[f][1,2,4]triazolo[4,3-a][1,4]diazepin-4-yl)propanoate] | 27 |  |  |  |  |  | 
CC[C@@H](C(=O)OC)[C@@H]1N=C(c2ccc(Cl)cc2)c2cc(OC)ccc2-n2c(C)nnc21 (racemic) [Compound 11, (+−)-methyl (R)-2-((S)-6-(4-chlorophenyl)-8-methoxy-1-methyl-4H-benzo[f][1,2,4]triazolo[4,3-a][1,4]diazepin-4-yl)butanoate] |  | recovery times comparable to the iBET control | no reduction of recovery times relative to vehicle-treated cells | 1.5 ± 0.0 | 7.0 ± 0.1 | 1.5 ± 0.4 | 10.0 ± 0.2
